This note sets out measurements from patent US11780868B1, “Homoleptic metal coordination complexes as antifungal agents” (King Abdulaziz University, priority 2023, dated 2023).

Type in all cases: cell-based, Candida albicans
One experiment relates to C. albicans cells. Kind of experiment: TUNEL assay for DNA fragmentation. To be noted: 0.5×MIC and 1×MIC, concentration dependent. On the procedure:
To examine the effect of C1 on the induction of cellular apoptosis in C. albicans cells, crucial apoptotic markers were observed. For this purpose, C. albicans 4251 and C. albicans 5112 cells were subjected to protoplast preparation by utilizing a method described previously by Srivastava et al. in 2020 through their research study. Briefly, cells were grown overnight and were exposed for 4 h with different concentrations of C1 (0.5×MIC and 1×MIC) and H2O2 (positive control) whereas, untreated cells were used as a negative control. Later on, the cells were washed and incubated for 10 min at room temperature in protoplast buffer-1 (1M sorbitol, 0.05M tris base, 0.01M MgCl2, 0.03M DTT, pH 7.4). The cells were spun at 1500 rpm for 5 min and the pellet was resuspended in protoplast buffer-2 (1M sorbitol, 0.05M tris base, 0.01M MgCl2, 0.001M DTT, pH 7.4) supplemented with lyticase enzyme (1 μg/mL) and incubated for 1 h at room temperature. […]
We further performed an assay to detect the presence of DNA damage in C. albicans, an indicator of late-stage apoptosis. […] The protoplasts were again washed with PBS and all the samples were examined under a fluorescence microscope using Zeiss Laser Scanning Confocal Microscope (LSM) 780 (Carl Zeiss Microscopy, Jena, Germany). […]

A further experiment relates to C. albicans 5112. Description: Cell cycle analysis (Muse cell analyser). To be noted: 4 h. How it is done:
(§1) The effect of C1 on the cell cycle of C. albicans 4251 and C. albicans 5112 was determined using Cell Cycle kit MCH100106 in a Guava® Muse® Cell Analyser according to the manufacturer's instructions. The cells of the C. albicans (1×10^6 cells/mL) were exposed to C1 for 4 h at different concentrations (0.5×MIC and 1×MIC). Each sample was rinsed with fresh PBS after exposure, and the pellet was fixed in 1 mL of 70% ice-cold ethanol (Sigma Aldrich Co., USA). The Cell Cycle assay was prepared by mixing the 100 μL of Luminex® Cell Cycle dye and 100 μL of the prewashed fixed cells and incubated in the dark for 30 minutes at room temperature. All samples were analysed by a Guava® Muse® Cell Analyser (Luminex® A DiaSorin Company, USA). During the experiment, both the negative (without treatment) and positive control (10 mM H2O2 treated) were used.

Another experiment relates to C. albicans 4251. Kind of experiment: Cell cycle analysis (Muse cell analyser). To be noted: 4 h. How it is done: as §1

As to `Brc1ccc([O][Co][O]c2ccc(Br)cc2C=Nc2ccc3c(c2)OCCO3)c(C=Nc2ccc3c(c2)OCCO3)c1` [Complex C1, [Co(L)2]], the “DNA fragmentation (TUNEL-positive cells)” value with C. albicans cells is on record as “effective at inducing DNA fragmentation”. For the same molecule, the “cells in G0/G1 phase” value with C. albicans 5112 (C. albicans 5112 (Flz resistant), 0.5×MIC) was determined as 50.8%; with C. albicans 5112 (C. albicans 5112, 1×MIC) it was 94.1%; with C. albicans 4251 (C. albicans 4251 (Flz sensitive), 0.5×MIC), 62%; in the experiment with C. albicans 4251 (C. albicans 4251, 1×MIC), 96.55%.
